# Laboratory results as given in US7776833B2, “Use of cyclic bioisosters of purine system derivatives for treating diseases produced by disorders of niterergic and dopaminergic systems” (priority 2003, dated 2010).
# Key:
# Format in all cases: in vivo, Wistar rats
# [1] = tested on: physical dependence from morphine (morphine abstinence); assay: Morphine abstinence syndrome, signs scored in the open field test
# Description: Thirty six hours after the last injection selected motor and autonomice parameters which are specific symptoms of abstinence were monitored in the <<open field>> test (an arena with a diameter of 120 cm and wall height of 40 cm).
# Med., 2002, V.29, p.1-6.). The observable signs were recorded quantitatively (if it was possible) with further assignment of an index to each sign (depending on the specific feature of the sign) and calculation of the sum of scores. The expression of the abstinence syndrome was presented as a sum of scores. The results were processed using nonparametric statistical analysis based on the Mann-Whitney test.
# [2] = tested on: nitrites and nitrates (NOx-); assay: Measurement of nitrates/nitrites (NOx-) in brain regions after the morphine abstinence experiment
# Description: (§1) After the above experiments the rat brains were isolated and immediately placed in the ice cold 0.9% solution of sodium chloride. After cooling the following structures were isolated from the brain: cerebral cortex, hippocampus, mesencephalon, striatum, brainstem, hypothalamus and cerebellum. The isolated tissue was homogenized in a Potter S homogenizer for 3 minutes at 1500 rpm in 4-5 volumes of 20 mM HEPES (pH 7.5) at 4° C. The supernatants were centrifuged for 30 minutes at 11000 g at 4° C., and aliquots of the obtained supernatants were taken for determining nitrates and nitrites (NOx-), while the remaining part was mixed with cooled 20 mM of HEPES (pH 7.5), containing 0.5 mM ethylenediamine tetraacetate (EDTA), 1 mM dithiotreitol (DDT), 1 mM phenylmethylsulfonyl fluoride (PMSF), aprotinine and leupeptine at a concentration of 5 μg/ml, this mixture being used for determining nitric oxide synthase (NOS) activity.
# To estimate the intensity of metabolism of nitric oxide in rats, quantitative determination of stable metabolites of nitrogen oxide-nitrites and nitrates (NOx-) was performed using a fluorometric method by fluorescence of naphthotriazole, a product of reaction of 2,3- diaminonaphthalene (DAN) and nitrite in an acidic medium (Misko T. R., Schilling R. J., Salvemini D. et al. A fluorometric assay for the measurement of nitrite in biological samples. Anal. Biochem., 1993, V. 214, p.11-16) with modifications (Lei B., Adachi N., Nagaro T., Arai T. Measurement of total nitric oxide metabolite (NO (x) (-)) levels in vivo. Brain. Res. Protoc., 1999, V. 4, p. 415-419).
# The supernatants of brain deproteinized at 100° C. were placed in a nitrite recovery system containing 0.125 unit/ml of nitrate reductase, 25 μM NADPH and 25 μM FAD prepared in 20 mM Tris-HCl buffer pH 7.6 and incubated for 30 minutes at 37° C. For oxidation of NADPH a lactate dehydrogenase (LDH)/pyruvate system was used. Then 316.0 μM DAN solution in 0.62 M HCl was added and the mixture was incubated for 10 minutes in dark. For stabilization of fluorescence of the formed naphthotriazole, 280 mM NaOH was added. The fluorescence intensity was measured using spectrofluorometer Hitachi F-3000 at a wavelength of excitation 365 nm and emission 405 nm. To calculate the concentration of NOx- in the brain a standard solution of sodium nitrate was used. The concentration of NOx- was expressed in nmol/mg of protein.
# (§2) The content of protein in the samples was determined by the Bradford method (Bradford M. M. A rapid and sensitive method for quantitation of microgram quantities of protein using the principle of protein binding . Anal. Biochem., 1976, V. 72, p. 248-254) using Coumassi dye. The statistical analysis was performed using methods appropriate for respective experiments. The data are expressed as mean±standard error of mean.
# [3] = tested on: nitric oxide synthase (NOS); assay: Nitric oxide synthase activity in brain regions, radiometric [3H]L-citrulline method; conditions: 3 x 20 mg/kg intramuscularly
# Description: as §1
# The activity of nitric oxide synthase (NOS) was determined using a radiometric method by the rate of L-citrulline accumulation in a reaction of [^3H] L-arginine oxidation catalyzed by NOS (Bredt M., Snyder S. Nitric oxide mediates glutamate-linked enhancement of cGMP levels in the cerebellum. Proc. Natl. Acad. Sci., USA, 1989, V.86, p.9030-9033). The formation of L-citrulline in this reaction is equivalent to a biosynthesis of nitric oxide.
# The reaction was initiated by adding brain supernatant in the reaction medium containing 2 μCi/ml of [3H] L-arginine, 20 mM HEPES (pH 7.4), 0.2 mM CaCl2, 5 μM FAD, 5 μM FMN, 1 mM NADPH, 50 μM of BH4. After 15-60 minutes of incubation at 37° C. a suspension of Dowex 50WX8-400 (Na^+-form), which sorbs unreacted [^3H]L-arginine, but not [^3H] L-citrulline was added to the samples. After the sorption the radioactivity of the samples was determined on a scintillation counter SL-4000 (“Intertechnique”). The activity of Ca^2+-dependent and Ca^2+-independent NOS isoforms was determined by the difference of rates of [^3H]L-citrulline formation in three parallel samples containing 2 mM EDTA (Ca^2+ chelator), 2 mM EDTA+2 mM L-NAME (inhibitor all NOS isoforms) or without inhibitors. The enzyme activity was expressed in rnol [^3H]L-citrulline acumulated per 1 minute on 1 mg of supernatant protein.
# as §2
# [4] = Morphine − (morphine + compound), compound 3 x 20 mg/kg intramuscularly, one value for the three compounds
# [5] = Groups Nos. 3-14, compound without morphine, 3 x 20 mg/kg intramuscularly, one value for all 12 compounds
# [6] = Morphine + compound, 3 x 20 mg/kg intramuscularly, one value for the three compounds
# [7] = Groups Nos. 3-14, compound without morphine, one value for all 12 compounds
# [8] = Morphine + compound, one value for the three compounds
# [9] = Control − morphine, open field, 36 h after last morphine injection
structure (smiles),measurement,setting,value
"O=c1[nH][nH]c(=O)c2ncncc12.[Li] [Compound 35, lithium salt of pyrimido[4,5-d]-6H-pyridazine-5,8-dione]",Authentic differences (ξ-square criterion) in appearance of signs of abstinence: <<Wet dog>> shakes,[1]; [4],1.0000
same,Authentic differences (ξ-square criterion) in appearance of signs of abstinence: Aggression,[1]; [4],0.8456
same,Authentic differences (ξ-square criterion) in appearance of signs of abstinence: Convulsions,[1]; [4],0.5578
same,Authentic differences (ξ-square criterion) in appearance of signs of abstinence: Diarrhea,[1]; [4],0.0001
same,Authentic differences (ξ-square criterion) in appearance of signs of abstinence: Dyspnea,[1]; [4],0.0685
same,Authentic differences (ξ-square criterion) in appearance of signs of abstinence: Forelimb jogging,[1]; [4],0.9321
same,Authentic differences (ξ-square criterion) in appearance of signs of abstinence: Grit with teeth,[1]; [4],0.7003
same,Authentic differences (ξ-square criterion) in appearance of signs of abstinence: Mastication,[1]; [4],0.1888
same,Authentic differences (ξ-square criterion) in appearance of signs of abstinence: Piloerection,[1]; [4],0.2345
same,Authentic differences (ξ-square criterion) in appearance of signs of abstinence: Ptosis,[1]; [4],0.0232
same,Authentic differences (ξ-square criterion) in appearance of signs of abstinence: Rhinorrhea,[1]; [4],0.2935
same,Authentic differences (ξ-square criterion) in appearance of signs of abstinence: Squeak when touched,[1]; [4],0.2035
same,"Nitrites, brainstem",[2]; [5],6.31 ± 0.58 nmol/mg of protein
same,"Nitrites, cerebellum",[2]; [5],6.66 ± 0.63 nmol/mg of protein
same,"Nitrites, cerebral cortex",[2]; [5],4.31 ± 0.37 nmol/mg of protein
same,"Nitrites, hippocampus",[2]; [5],6.47 ± 0.72 nmol/mg of protein
same,"Nitrites, hypothalamus",[2]; [5],6.77 ± 0.83 nmol/mg of protein
same,"Nitrites, midbrain",[2]; [5],6.65 ± 0.70 nmol/mg of protein
same,"Nitrites, striatum",[2]; [5],6.11 ± 0.29 nmol/mg of protein
same,"Nitrites, brainstem",[2]; [6],6.87 ± 0.81 nmol/mg of protein
same,"Nitrites, cerebellum",[2]; [6],5.93 ± 0.54 nmol/mg of protein
same,"Nitrites, cerebral cortex",[2]; [6],4.84 ± 0.31 nmol/mg of protein
same,"Nitrites, hippocampus",[2]; [6],5.31 ± 0.33 nmol/mg of protein
same,"Nitrites, hypothalamus",[2]; [6],6.77 ± 0.46 nmol/mg of protein
same,"Nitrites, midbrain",[2]; [6],5.95 ± 0.52 nmol/mg of protein
same,"Nitrites, striatum",[2]; [6],3.57 ± 0.42 nmol/mg of protein
same,"Activity of NOS, hippocampus",[3]; [7],3.09 ± 0.16 nmol/min/mg of protein
same,"Activity of NOS, hypothalamus",[3]; [7],5.45 ± 0.24 nmol/min/mg of protein
same,"Activity of NOS, midbrain",[3]; [7],2.60 ± 0.29 nmol/min/mg of protein
same,"Activity of NOS, striatum",[3]; [7],1.26 ± 0.08 nmol/min/mg of protein
same,"Activity of NOS, hippocampus",[3]; [8],2.65 ± 0.15 nmol/min/mg of protein
same,"Activity of NOS, hypothalamus",[3]; [8],5.56 ± 0.34 nmol/min/mg of protein
same,"Activity of NOS, midbrain",[3]; [8],1.89 ± 0.27 nmol/min/mg of protein
same,"Activity of NOS, striatum",[3]; [8],1.34 ± 0.09 nmol/min/mg of protein
"Nc1cccc2c(=O)n([C@@H]3O[C@H](CO)[C@@H](O)[C@H]3O)[nH]c(=O)c12.[Na] [Compound 10, sodium salt of 5-amino-2-(β-D-ribofuranosile)benzo[d]-3H-pyridazine-1,4-dione]",Authentic differences (ξ-square criterion) in appearance of signs of abstinence: <<Wet dog>> shakes,[1]; [4],0.7562
same,Authentic differences (ξ-square criterion) in appearance of signs of abstinence: Aggression,[1]; [4],0.8456
same,Authentic differences (ξ-square criterion) in appearance of signs of abstinence: Convulsions,[1]; [4],0.7546
same,Authentic differences (ξ-square criterion) in appearance of signs of abstinence: Diarrhea,[1]; [4],0.0032
same,Authentic differences (ξ-square criterion) in appearance of signs of abstinence: Dyspnea,[1]; [4],0.0834
same,Authentic differences (ξ-square criterion) in appearance of signs of abstinence: Forelimb jogging,[1]; [4],0.8217
same,Authentic differences (ξ-square criterion) in appearance of signs of abstinence: Grit with teeth,[1]; [4],0.8652
same,Authentic differences (ξ-square criterion) in appearance of signs of abstinence: Mastication,[1]; [4],0.1032
same,Authentic differences (ξ-square criterion) in appearance of signs of abstinence: Piloerection,[1]; [4],0.2567
same,Authentic differences (ξ-square criterion) in appearance of signs of abstinence: Ptosis,[1]; [4],0.0320
same,Authentic differences (ξ-square criterion) in appearance of signs of abstinence: Rhinorrhea,[1]; [4],0.4032
same,Authentic differences (ξ-square criterion) in appearance of signs of abstinence: Squeak when touched,[1]; [4],0.1342
same,"Nitrites, brainstem",[2]; [5],6.31 ± 0.58 nmol/mg of protein
same,"Nitrites, cerebellum",[2]; [5],6.66 ± 0.63 nmol/mg of protein
same,"Nitrites, cerebral cortex",[2]; [5],4.31 ± 0.37 nmol/mg of protein
same,"Nitrites, hippocampus",[2]; [5],6.47 ± 0.72 nmol/mg of protein
same,"Nitrites, hypothalamus",[2]; [5],6.77 ± 0.83 nmol/mg of protein
same,"Nitrites, midbrain",[2]; [5],6.65 ± 0.70 nmol/mg of protein
same,"Nitrites, striatum",[2]; [5],6.11 ± 0.29 nmol/mg of protein
same,"Nitrites, brainstem",[2]; [6],6.99 ± 0.82 nmol/mg of protein
same,"Nitrites, cerebellum",[2]; [6],5.85 ± 0.47 nmol/mg of protein
same,"Nitrites, cerebral cortex",[2]; [6],4.93 ± 0.39 nmol/mg of protein
same,"Nitrites, hippocampus",[2]; [6],5.24 ± 0.49 nmol/mg of protein
same,"Nitrites, hypothalamus",[2]; [6],6.91 ± 0.58 nmol/mg of protein
same,"Nitrites, midbrain",[2]; [6],5.75 ± 0.39 nmol/mg of protein
same,"Nitrites, striatum",[2]; [6],3.57 ± 0.42 nmol/mg of protein
same,"Activity of NOS, hippocampus",[3]; [7],3.09 ± 0.16 nmol/min/mg of protein
same,"Activity of NOS, hypothalamus",[3]; [7],5.45 ± 0.24 nmol/min/mg of protein
same,"Activity of NOS, midbrain",[3]; [7],2.60 ± 0.29 nmol/min/mg of protein
same,"Activity of NOS, striatum",[3]; [7],1.26 ± 0.08 nmol/min/mg of protein
same,"Activity of NOS, hippocampus",[3]; [8],2.51 ± 0.19 nmol/min/mg of protein
same,"Activity of NOS, hypothalamus",[3]; [8],5.36 ± 0.33 nmol/min/mg of protein
same,"Activity of NOS, midbrain",[3]; [8],1.99 ± 0.29 nmol/min/mg of protein
same,"Activity of NOS, striatum",[3]; [8],1.29 ± 0.09 nmol/min/mg of protein
"CN1CC[C@]23c4c5ccc(O)c4O[C@H]2[C@@H](O)C=C[C@H]3[C@H]1C5.Cl [morphine, morphine hydrochloride, reference compound]",Authentic differences (ξ-square criterion) in appearance of signs of abstinence: <<Wet dog>> shakes,[1]; [9],0.0002
same,Authentic differences (ξ-square criterion) in appearance of signs of abstinence: Aggression,[1]; [9],0.5770
same,Authentic differences (ξ-square criterion) in appearance of signs of abstinence: Convulsions,[1]; [9],0.0507
same,Authentic differences (ξ-square criterion) in appearance of signs of abstinence: Diarrhea,[1]; [9],0.0075
same,Authentic differences (ξ-square criterion) in appearance of signs of abstinence: Dyspnea,[1]; [9],0.0053
same,Authentic differences (ξ-square criterion) in appearance of signs of abstinence: Forelimb jogging,[1]; [9],0.0180
same,Authentic differences (ξ-square criterion) in appearance of signs of abstinence: Grit with teeth,[1]; [9],0.1266
same,Authentic differences (ξ-square criterion) in appearance of signs of abstinence: Piloerection,[1]; [9],0.5770
same,Authentic differences (ξ-square criterion) in appearance of signs of abstinence: Ptosis,[1]; [9],0.0053
same,Authentic differences (ξ-square criterion) in appearance of signs of abstinence: Rhinorrhea,[1]; [9],0.2994
same,Authentic differences (ξ-square criterion) in appearance of signs of abstinence: Squeak when touched,[1]; [9],0.0053
same,"Nitrites, cerebellum",[2]; Group No. 2 (morphine),6.07 ± 0.42 nmol/mg of protein
same,"Nitrites, hippocampus",[2]; Group No. 2 (morphine),6.45 ± 0.69 nmol/mg of protein
same,"Nitrites, hypothalamus",[2]; Group No. 2 (morphine),4.62 ± 0.71 nmol/mg of protein
